According to patent publication US20160346291A1, “COMPOSITIONS AND THERAPEUTIC METHODS FOR ACCELERATED PLAQUE REGRESSION” (Resverlogix Corp, priority 2013, published 2016):

Each molecule was assayed on ApoA-I mRNA (assay: ApoA-I mRNA quantitation in HepG2 cells (real-time PCR)). Settings: concentration less than or equal to 100 uM, fold induction relative to DMSO control.
Format: cell-based
Set-up: key: Active: An active compound is one that causes a >15% increase in ApoA-I mRNA at a concentration less than or equal to 100 uM
Procedure: At time of harvesting, the spent media was removed from the HepG2 cells and immediately placed on ice (for immediate use) or at −80° C. (for future use) in ApoA-I and albumin ELISAs. The cells remaining in the plate wells were rinsed in 200 μL PBS. PBS was carefully removed to avoid removing any loosely attached cells.
Once the PBS was removed, 85 μL cell lysis solution was added to the cells in each well and incubated for 5-10 min at room temperature, to allow for complete cell lysis and detachment. mRNA was then prepared using the “mRNA Catcher PLUS plate” from Invitrogen, according to the protocol supplied. After the last wash, as much wash buffer as possible was aspirated without allowing the wells to dry. Elution Buffer (E3, 80 μL) was then added to each well. mRNA was then eluted by incubating the mRNA Catcher PLUS plate with Elution Buffer for 5 min at 68° C. and then immediately placing the plate on ice.
The eluted mRNA was isolated and then used in a one-step real-time […]-PCR reaction, using components of the Ultra Sense Kit together with Applied Biosystems primer-probe mixes. Real-time PCR data was analyzed, using the Ct values, to determine the fold induction of each unknown sample, relative to the control (that is, relative to the control for each independent DMSO concentration).
The following compounds of Formula I were evaluated in this assay. An active compound is one that causes a >15% increase in ApoA-I mRNA at a concentration less than or equal to 100 uM.
`COc1cc(OC)c2c(=O)[nH]c(-c3ccc(O)c(OC)c3)nc2c1` [2-(4-hydroxy-3-methoxyphenyl)-5,7-dimethoxyquinazolin-4(3H)-one] was tested, and the “Effect on ApoA-I mRNA levels” value was “Active”. For `COc1cc(OC)c2c(=O)[nH]c(-c3cc(C)c(OCCN4CCOCC4)c(C)c3)cc2n1` [7-(3,5-dimethyl-4-(2-morpholinoethoxy)phenyl)-2,4-dimethoxy-1,6-naphthyridin-5(6H)-one], the “Effect on ApoA-I mRNA levels” value was “Active”. For `Cc1cc(C)c2c(=O)[nH]c(-c3cc(C)c(OCCO)c(C)c3)nc2c1` [2-(4-(2-hydroxyethoxy)-3,5-dimethylphenyl)-5,7-dimethylquinazolin-4(3H)-one], the “Effect on ApoA-I mRNA levels” value was “Active”. With `COc1cc(OC)c2cnc(-c3cc(C)c(OCCO)c(C)c3)nc2c1` [2-(4-(5,7-dimethoxyquinazolin-2-yl)-2,6-dimethylphenoxy)ethanol] the “Effect on ApoA-I mRNA levels” value was “Active”. In the case of `Cc1cc(-c2nc3ccc(Br)cc3c(=O)[nH]2)cc(C)c1OCCO` [6-bromo-2-(4-(2-hydroxyethoxy)-3,5-dimethylphenyl)quinazolin-4(3H)-one], the “Effect on ApoA-I mRNA levels” value was “Active”. With `Cc1cc(-c2nc3ccccc3c(=O)[nH]2)cc(C)c1OCCO` [2-(4-(2-hydroxyethoxy)-3,5-dimethylphenyl)quinazolin-4(3H)-one] the “Effect on ApoA-I mRNA levels” value was “Active”. For `COc1cc(OC)c2c(=O)[nH]c(-c3cccc(C)n3)nc2c1` [5,7-dimethoxy-2-(6-methylpyridin-2-yl)quinazolin-4(3H)-one], the “Effect on ApoA-I mRNA levels” value was “Active”. `COc1cc(OC)c2c(=O)[nH]c(-c3ccc(O)cc3)cc2c1` [3-(4-hydroxyphenyl)-6,8-dimethoxyisoquinolin-1(2H)-one] was tested, and the “Effect on ApoA-I mRNA levels” value was “Active”. With `Oc1ccc(-c2cc3ccccc3cn2)cc1` [4-Isoquinolin-3-yl-phenol] the “Effect on ApoA-I mRNA levels” value was “Active”. In the case of `Cc1cc(-c2cc3nc(OC(C)C)cc(OC(C)C)c3c(=O)[nH]2)cc(C)c1O` [7-(4-hydroxy-3,5-dimethylphenyl)-2,4-diisopropoxy-1,6-naphthyridin-5(6H)-one], the “Effect on ApoA-I mRNA levels” value was “Active”. `COc1cc(OC)c2c(=O)[nH]c(-c3cc(C)c(OCCNS(C)(=O)=O)c(C)c3)nc2c1` [N-(2-(4-(5,7-dimethoxy-4-oxo-3,4-dihydroquinazolin-2-yl)-2,6-dimethylphenoxy)ethyl)methanesulfonamide] was tested, and the “Effect on ApoA-I mRNA levels” value was “Active”. With `O=c1[nH]c(-c2ccc3c(c2)OCCO3)nc2ccccc12` [2-(2,3-dihydrobenzo[b][1,4]dioxin-6-yl)quinazolin-4(3H)-one] the “Effect on ApoA-I mRNA levels” value was “Active”. `COc1cc(OC)c2c(=O)[nH]c(-c3ccc(OCC(N)=O)cc3)nc2c1` [2-(4-(5,7-dimethoxy-4-oxo-3,4-dihydroquinazolin-2-yl)phenoxy)acetamide] was tested, and the “Effect on ApoA-I mRNA levels” value was “Active”. For `COc1cc(OC)c2c(=O)[nH]c(-c3ccc(O)cc3)nc2c1` [2-(4-hydroxyphenyl)-5,7-dimethoxyquinazolin-4(3H)-one], the “Effect on ApoA-I mRNA levels” value was “Active”. For `COCCOc1c(C)cc(-c2nc3cc(OC)cc(OC)c3c(=O)[nH]2)cc1C` [5,7-dimethoxy-2-(4-(2-methoxyethoxy)-3,5-dimethylphenyl)quinazolin-4(3H)-one], the “Effect on ApoA-I mRNA levels” value was “Active”. With `COc1cc(OC)c2cnc(-c3cc(C)c(OCCN4CCOCC4)c(C)c3)cc2c1` [4-(2-(4-(6,8-dimethoxyisoquinolin-3-yl)-2,6-dimethylphenoxy)ethyl)morpholine] the “Effect on ApoA-I mRNA levels” value was “Active”. For `COc1cc(OC)c2c(=O)[nH]c(-c3cc(C)c(O)c(C)c3)cc2n1` [7-(4-hydroxy-3,5-dimethylphenyl)-2,4-dimethoxy-1,6-naphthyridin-5(6H)-one], the “Effect on ApoA-I mRNA levels” value was “Active”. With `O=c1[nH]c(-c2ccc(O)cc2)cc2ccccc12` [3-(4-Hydroxyphenyl)-2H-isoquinolin-1-one] the “Effect on ApoA-I mRNA levels” value was “Active”. With `COc1cc(OC)c2c(=O)[nH]c(-c3ccc(O)c(Cl)c3)nc2c1` [2-(3-chloro-4-hydroxyphenyl)-5,7-dimethoxyquinazolin-4(3H)-one] the “Effect on ApoA-I mRNA levels” value was “Active”. With `COc1cc(OC)c2c(=O)[nH]c(-c3ccc(OCCO)c(Cl)c3)nc2c1` [2-(3-chloro-4-(2-hydroxyethoxy)phenyl)-5,7-dimethoxyquinazolin-4(3H)-one] the “Effect on ApoA-I mRNA levels” value was “Active”. In the case of `COc1cc(OC)c2c(=O)[nH]c(-c3cc(C)c(OCCNC(=O)Nc4ccccc4)c(C)c3)nc2c1` [1-(2-(4-(5,7-dimethoxy-4-oxo-3,4-dihydroquinazolin-2-yl)-2,6-dimethylphenoxy)ethyl)-3-phenylurea], the “Effect on ApoA-I mRNA levels” value was “Active”. For `N=C(N)NCCCC(N)C(=O)Oc1ccc(-c2cc3ccccc3c(=O)[nH]2)cc1` (stereo not drawn) [4-(1-Oxo-1,2-dihydroisoquinolin-3-yl)phenyl 2-amino-5-guanidinopentanoate], the “Effect on ApoA-I mRNA levels” value was “Active”. With `COc1cc(OC)cc(-c2nc3cc(OC)cc(OC)c3c(=O)[nH]2)c1` [2-(3,5-dimethoxyphenyl)-5,7-dimethoxyquinazolin-4(3H)-one] the “Effect on ApoA-I mRNA levels” value was “Active”. With `Cc1cc(-c2nc3ccc(CN4CCOCC4)cc3c(=O)[nH]2)cc(C)c1O` [2-(4-hydroxy-3,5-dimethylphenyl)-6-(morpholinomethyl)quinazolin-4(3H)-one] the “Effect on ApoA-I mRNA levels” value was “Active”. In the case of `COc1cc(O)c2c(=O)[nH]c(-c3cc(C)c(O)c(C)c3)nc2c1` [5-hydroxy-2-(4-hydroxy-3,5-dimethylphenyl)-7-methoxyquinazolin-4(3H)-one], the “Effect on ApoA-I mRNA levels” value was “Active”. For `COc1cc(OC)c2c(=O)[nH]c(-c3cc(C)c(OCCO)c(C)c3)cc2c1` [3-(4-(2-hydroxyethoxy)-3,5-dimethylphenyl)-6,8-dimethoxyisoquinolin-1(2H)-one], the “Effect on ApoA-I mRNA levels” value was “Active”. For `COc1cc(OC)c2c(=O)[nH]c(-c3cc(C)c(OCCO)c(C)c3)nc2c1` [2-(4-(2-hydroxyethoxy)-3,5-dimethylphenyl)-5,7-dimethoxyquinazolin-4(3H)-one], the “Effect on ApoA-I mRNA levels” value was “Active”. For `COc1cc(OC)c2c(=O)[nH]c(-c3cccc(-c4ccc(S(C)(=O)=O)cc4)n3)nc2c1` [5,7-dimethoxy-2-(6-(4-(methylsulfonyl)phenyl)pyridin-2-yl)quinazolin-4(3H)-one], the “Effect on ApoA-I mRNA levels” value was “Active”. In the case of `COc1cc(OC)c2c(=O)[nH]c(-c3ccc4c(c3)OCCO4)nc2c1` [2-(2,3-dihydrobenzo[b][1,4]dioxin-6-yl)-5,7-dimethoxyquinazolin-4(3H)-one], the “Effect on ApoA-I mRNA levels” value was “Active”. For `COc1cc(OC)c2c(=O)[nH]c(-c3cc(C)c(OCCO)c(C)c3)nc2n1` [2-(4-(2-hydroxyethoxy)-3,5-dimethylphenyl)-5,7-dimethoxypyrido[2,3-d]pyrimidin-4(3H)-one], the “Effect on ApoA-I mRNA levels” value was “Active”. With `COc1cc(OC)c2c(=O)[nH]c(-c3cc(C)c(OCCOCc4ccccc4)c(C)c3)nc2n1` [2-(4-(2-(benzyloxy)ethoxy)-3,5-dimethylphenyl)-5,7-dimethoxypyrido[2,3-d]pyrimidin-4(3H)-one] the “Effect on ApoA-I mRNA levels” value was “Inactive”. For `COc1cc(OC)c2c(=O)[nH]c(-c3cc(C)c(NC(=O)CO)c(C)c3)nc2c1` [N-(4-(5,7-dimethoxy-4-oxo-3,4-dihydroquinazolin-2-yl)-2,6-dimethylphenyl)-2-hydroxyacetamide], the “Effect on ApoA-I mRNA levels” value was “Active”. `COc1cc(OC)c2c(=O)[nH]c(-c3ccccc3Cl)nc2c1` [2-(2-chlorophenyl)-5,7-dimethoxyquinazolin-4(3H)-one] was tested, and the “Effect on ApoA-I mRNA levels” value was “Active”.
